Reference: US20230060425A1, “FUSED BICYCLIC HETEROCYCLE DERIVATIVES AS PESTICIDES” (Bayer Aktiengesellschaft, priority 2019, published 2023)

Experiments:
Assay type in all cases: in vivo
[1] = tested on: Myzus persicae; test: Myzus persicae oral test; conditions: 120 h, application rate 4 ppm, after 5 days, read-out: efficacy
Description: Solvent: 100 parts by weight of acetone
To produce a suitable preparation of active compound, 1 part by weight of active compound is dissolved using the specified parts by weight of solvent and made up with water until the desired concentration is attained.
50 μl of the active compound preparation are transferred into microtitre plates and made up to a final volume of 200 μl with 150 μl of IPL41 insect medium (33%+15% sugar). Subsequently, the plates are sealed with parafilm, which a mixed population of green peach aphids (Myzus persicae) within a second microtitre plate is able to puncture and imbibe the solution through it.
(§1) After 5 days, the efficacy in % is determined. 100% means that all the aphids have been killed; 0% means that no aphids have been killed.

[2] = tested on: Ctenocephalides felis; test: Ctenocephalides felis in vitro contact test with adult cat fleas; conditions: application rate 5 μg/cm^2 (=500 g/ha); after 48 h; fleas dead or moribund
Description: Ctenocephalides felis—In Vitro Contact Tests with Adult Cat Fleas
For the coating of the test tubes, 9 mg of active compound are first dissolved in 1 ml of acetone p.a. and then diluted to the desired concentration with acetone p.a. 250 μl of the solution are distributed homogeneously on the inner walls and the base of a 25 ml glass tube by turning and rocking on an orbital shaker (rocking rotation at 30 rpm for 2 h). With 900 ppm of active compound solution and internal surface area 44.7 cm^2, given homogeneous distribution, an area-based dose of 5 μg/cm^2 is achieved.
After the solvent has evaporated off, the tubes are populated with 5-10 adult cat fleas (Ctenocephalides felis), sealed with a perforated plastic lid and incubated in a horizontal position at room temperature and ambient humidity. After 48 h, efficacy is determined. To this end, the tubes are stood upright and the fleas are knocked to the base of the tube. Fleas which remain motionless at the base or move in an uncoordinated manner are considered to be dead or moribund.
100% efficacy means that all the fleas were dead or moribund. 0% efficacy means that no fleas were harmed.

[3] = tested on: Diabrotica balteata; test: Diabrotica balteata spray test; conditions: 168 h, application rate 160 μg/cavity (μg/well), wheat grains, after 7 days, read-out: efficacy
Description: Diabrotica balteata—Spray Test
(§2) Solvent: • 78 parts by weight of acetone • 1.5 parts by weight of dimethylformamide
(§3) Emulsifier: alkylaryl polyglycol ether
(§4) To produce a suitable active compound preparation, 1 part by weight of active compound is dissolved using the stated parts by weight of solvent and made up with water containing an emulsifier concentration of 1000 ppm until the desired concentration is attained. To produce further test concentrations, the formulation is diluted with emulsifier-containing water.
Pre-swollen wheat grains (Triticum aestivum) are incubated in a multiwell plate filled with agar and a little water for one day (5 seed grains per well). The germinated wheat grains are sprayed with an active compound preparation of the desired concentration. Subsequently, each cavity is infected with 10-20 beetle larvae of Diabrotica balteata.
After 7 days, the efficacy in % is determined. 100% means that all wheat plants have grown as in the untreated, uninfected control; 0% means that no wheat plant has grown.

[4] = tested on: Ctenocephalides felis; test: Ctenocephalides felis oral test; conditions: 48 h, application rate 100 ppm, in citrated cattle blood, after 2 days, read-out: efficacy (kill in %)
Description: Ctenocephalides felis—Oral Test
Solvent: Dimethyl sulfoxide
To produce a suitable active compound formulation, 10 mg of active compound are mixed with 0.5 ml of dimethyl sulfoxide. Dilution with citrated cattle blood gives the desired concentration.
About 20 unfed adult cat fleas (Ctenocephalides felis) are placed into a chamber which is closed at the top and bottom with gauze. A metal cylinder whose bottom end is closed with parafilm is placed onto the chamber. The cylinder contains the blood/active compound formulation, which can be imbibed by the fleas through the parafilm membrane.
After 2 days, the kill in % is determined. 100% means that all of the fleas have been killed; 0% means that none of the fleas have been killed.

[5] = tested on: Spodoptera frugiperda; test: Spodoptera frugiperda spray test; conditions: foliar, 168 h, application rate 100 g/ha, maize leaf discs, after 7 days, read-out: efficacy
Description: Spodoptera frugiperda—Spray Test
(§5) Solvent: • 78.0 parts by weight of acetone • 1.5 parts by weight of dimethylformamide
as §3
To produce further test concentrations, the formulation is diluted with emulsifier-containing water.
After 7 days, the efficacy in % is determined. 100% means that all the caterpillars have been killed; 0% means that no caterpillar has been killed.

[6] = tested on: Meloidogyne incognita; test: Meloidogyne incognita test; conditions: 336 h, application rate 20 ppm, lettuce, after 14 days, formation of galls, read-out: nematicidal efficacy
Description: Meloidouyne incognita Test
Solvent: 125.0 parts by weight of acetone
To produce a suitable active compound formulation, 1 part by weight of active compound is mixed with the stated amount of solvent and the concentrate is diluted to the desired concentration with water.
Vessels are filled with sand, active compound solution, an egg/larvae suspension of the southern root-knot nematode (Meloidogyne incognita) and lettuce seeds. The lettuce seeds germinate and the plants develop. The galls develop on the roots.
After 14 days, the nematicidal efficacy in % is determined by the formation of galls. 100% means that no galls were found; 0% means that the number of galls on the treated plants corresponds to the untreated control.

[7] = tested on: Myzus persicae; test: Myzus persicae spray test; conditions: foliar, 120 h, application rate 100 g/ha, Chinese cabbage leaf discs, after 5 days, read-out: efficacy
Description: Myzus persicae—Spray Test
as §2, §3, §4
Discs of Chinese cabbage leaves (Brassica pekinensis) infested by all stages of the green peach aphid (Myzus persicae) are sprayed with an active compound formulation of the desired concentration.
as §1

[8] = tested on: Phaedon cochleariae; test: Phaedon cochleariae spray test; conditions: foliar, 168 h, application rate 100 g/ha, Chinese cabbage leaf discs, after 7 days, read-out: efficacy
Description: Phaedon cochleariae—Spray Test
as §5, §3, §4
Discs of Chinese cabbage leaves (Brassica pekinensis) are sprayed with an active compound formulation of the desired concentration and, after drying, populated with larvae of the mustard beetle (Phaedon cochleariae).
After 7 days, the efficacy in % is determined. 100% means that all the beetle larvae have been killed; 0% means that no beetle larvae have been killed.

[9] = tested on: Aphis gossypii; test: Aphis gossypii spray test (APHIGO S); conditions: 144 h, 6 dat, read-out: % Efficacy
Description: Aphis gossypii—Spray Test (APHIGO S)
(§6) Solvent: 14 parts by weight of dimethylformamide
as §3
as §4, with “water. If the addition of ammonium salts or/and penetrants is required, these are each added in a concentration of 1000 ppm to the formulation solution.” for “water.”
Cotton plants (Gossypium hirsutum) heavily infested by the cotton aphid (Aphis gossypii) are sprayed with an active compound formulation of the desired concentration.
After the desired time, the kill in % is determined. 100% means that all the aphids have been killed; 0% means that no aphids have been killed.

[10] = tested on: Myzus persicae; test: Myzus persicae spray test on bell pepper plants (MYZUPE S); conditions: 144 h, 6 dat, read-out: % Efficacy
Description: Myzus persicae—Spray Test (MYZUPE S)
as §6, §3
as §4, with “water. If the addition of ammonium salts or/and penetrants is required, these are each added in a concentration of 1000 ppm to the formulation solution.” for “water.”
Bell pepper plants (Capsicum annuum) severely infested with the green peach aphid (Myzus persicae) are treated by spraying with the active compound formulation in the desired concentration.
After the desired time, the kill in % is determined. 100% means that all the animals have been killed; 0% means that no animals have been killed.

Structure (SMILES) | pest or weed control at 4 ppm [1] | efficacy [2] | pest or weed control at 160 µg/well [3] | pest or weed control at 100 ppm [4] | pest or weed control at 100 g/ha [5] | pest or weed control at 20 ppm [6] | pest or weed control at 100 g/ha [7] | pest or weed control at 100 g/ha [8] | Emax at 4 ppm [9] | Emax at 0.8 ppm ([10]; 0.8 ppm) | Emax at 4 ppm ([10]; 4 ppm)
CCS(=O)(=O)c1c(-c2nc3cc(C(F)(F)C(F)(F)F)cnc3n2C)ncc2cc(Br)ccc12 [Example I-005] | 100% | 100% | 80% | 100% | 100% | 90% | – | – | – | – | –
CCS(=O)(=O)c1c(-c2nc3cc(C(F)(F)C(F)(F)F)cnc3n2C)ncc2c(Br)cccc12 [Example I-006] | 90% | – | 100% | – | 100% | 90% | 100% | – | – | – | –
CCS(=O)(=O)c1c(-c2nc3cc(C(F)(F)F)nnc3n2C)ncc2cc(Cl)ccc12 [Example I-008] | 100% | – | – | 100% | 100% | 100% | – | 100% | – | – | –
CCS(=O)(=O)c1c(-c2nc3cc(C(F)(F)C(F)(F)F)ncc3n2C)ncc2c(C#N)cccc12 [Example I-020] | 100% | – | 100% | – | 100% | 90% | 90% | – | – | – | –
CCS(=O)(=O)c1c(-c2nc3cc(C(F)(F)F)nnc3n2C)ncc2c(Br)cccc12 [Example I-027] | 100% | – | 100% | – | 100% | 100% | 70% | – | – | – | –
CCS(=O)(=O)c1c(-c2nc3cc(C(F)(F)C(F)(F)F)ncc3n2C)ncc2c(C(F)(F)F)cccc12 [Example I-012] | 100% | 90% | – | 100% | 100% | – | 90% | 100% | – | – | –
CCS(=O)(=O)c1c(-c2nc3cc(C(F)(F)F)nnc3n2C)ncc2ccc(C(F)F)cc12 [Example I-042] | 100% | – | 100% | – | 83% | 90% | 100% | – | – | – | –
CCS(=O)(=O)c1c(-c2nc3cc(C(F)(F)F)cnc3n2C)ncc2cc(C)ccc12 [Example I-015] | 100% | – | – | – | 83% | – | – | – | 100% | 25% | 100%
CCS(=O)(=O)c1c(-c2nc3cc(C(F)(F)F)cnc3n2C)ncc2c(C#N)cccc12 [Example I-026] | 90% | – | – | – | 100% | 90% | 100% | 100% | – | – | –
CCS(=O)(=O)c1c(-c2nc3cc(C(F)(F)F)nnc3n2C)ncc2cc(C(F)F)ccc12 [Example I-041] | 100% | – | 100% | – | 100% | 100% | 90% | – | – | – | –
CCS(=O)(=O)c1c(-c2nc3cc(C(F)(F)F)cnc3n2C)ncc2c(Br)cccc12 [Example I-004] | 100% | – | 100% | – | 100% | 90% | – | – | – | – | –
CCS(=O)(=O)c1c(-c2nc3cc(C(F)(F)F)nnc3n2C)ncc2cc(C(F)(F)F)ccc12 [Example I-025] | 100% | 100% | 100% | 100% | 100% | – | 90% | – | – | – | –
